Experimental data taken from PubChem BioAssay AID330 (DTP/NCI, 2004).
Several values for one entry are separate records, joined by “and”; a condition that tells them apart may be missing. Equal entries are not always repeated. Toxic doses and inconclusive results are not listed.

Test system: P388 leukemia ip, CD2F1 mice, survival T/C
Test: NCI In Vivo Anticancer Drug Screen. Data for tumor model P388 Leukemia (intraperitoneal) in CD2F1 (CDF1) mice
Settings: endpoint: median survival time, higher = longer survival
Procedure, shortened: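 Mice carrying the transplanted tumor received test compound or vehicle. Survival was recorded in each group, and the value is the treated-group measurement divided by that of the vehicle-treated control group.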

[1] = dose: 100.0 mg/kg/injection, schedule: Q01DX009 (ip), vehicle: saline with Tween-80
[2] = dose: 200.0 mg/kg/injection, schedule: Q01DX009 (ip), vehicle: saline with Tween-80
[3] = dose: 400.0 mg/kg/injection, schedule: Q01DX009 (ip), vehicle: saline with Tween-80
[4] = dose: 50.0 mg/kg/injection, schedule: Q01DX005 (ip), vehicle: saline
[5] = dose: 100.0 mg/kg/injection, schedule: Q01DX005 (ip), vehicle: saline
[6] = dose: 200.0 mg/kg/injection, schedule: Q01DX005 (ip), vehicle: saline
[7] = dose: 100.0 mg/kg/injection, schedule: Q01DX005 (ip), vehicle: saline with Tween-80
[8] = dose: 200.0 mg/kg/injection, schedule: Q01DX005 (ip), vehicle: saline with Tween-80
[9] = dose: 50.0 mg/kg/injection, schedule: Q01DX009 (ip), vehicle: Klucel (hydroxypropylcellulose) (HPC)
[10] = dose: 100.0 mg/kg/injection, schedule: Q01DX009 (ip), vehicle: Klucel (hydroxypropylcellulose) (HPC)

Compound: CC(=O)O[C@@H]1C[C@H](O)[C@@]23COC(O)[C@H]1[C@@H]2C[C@@H](O)[C@@]1(C)C2C(=O)C[C@@H](c4ccoc4)[C@]2(C)CC[C@@H]13 (stereo partly drawn)
- T/C (dose: 2.4 mg/kg/injection, schedule: Q01DX009 (ip), vehicle: Klucel (hydroxypropylcellulose) (HPC)): 99 % of control
- T/C (dose: 18.75 micrograms/kg/injection, schedule: Q01DX009 (ip), vehicle: Klucel (hydroxypropylcellulose) (HPC)): 107 % of control
- T/C (dose: 37.5 micrograms/kg/injection, schedule: Q01DX009 (ip), vehicle: Klucel (hydroxypropylcellulose) (HPC)): 117 % of control
- T/C (dose: 75.0 micrograms/kg/injection, schedule: Q01DX009 (ip), vehicle: Klucel (hydroxypropylcellulose) (HPC)): 96 % of control
- T/C (dose: 150.0 micrograms/kg/injection, schedule: Q01DX009 (ip), vehicle: Klucel (hydroxypropylcellulose) (HPC)): 101 % of control

Compound: CCOC(=O)c1c(C2OC(CO)C(O)C2O)cn(C)c1-c1ccccc1 (stereo not drawn)
- T/C (dose: 50.0 mg/kg/injection, schedule: Q01DX001 (ip), vehicle: Klucel (hydroxypropylcellulose) (HPC)): 103 % of control
- T/C (dose: 100.0 mg/kg/injection, schedule: Q01DX001 (ip), vehicle: Klucel (hydroxypropylcellulose) (HPC)): 98 % of control
- T/C (dose: 200.0 mg/kg/injection, schedule: Q01DX001 (ip), vehicle: Klucel (hydroxypropylcellulose) (HPC)): 98 % of control

Compound: CN(/N=N/N(C)c1ccccc1)c1ccccc1
- T/C (dose: 25.0 mg/kg/injection, schedule: Q01DX009 (ip), vehicle: saline with Tween-80): 103 % of control and 93 % of control
- T/C (dose: 44.0 mg/kg/injection, schedule: Q01DX009 (ip), vehicle: saline with Tween-80): 118 % of control
- T/C (dose: 50.0 mg/kg/injection, schedule: Q01DX009 (ip), vehicle: saline with Tween-80): 101 % of control and 107 % of control
- T/C (dose: 66.0 mg/kg/injection, schedule: Q01DX009 (ip), vehicle: saline with Tween-80): 104 % of control
- T/C [1]: 98 % of control and 110 % of control and 90 % of control
- T/C (dose: 150.0 mg/kg/injection, schedule: Q01DX009 (ip), vehicle: saline with Tween-80): 100 % of control
- T/C [2]: 103 % of control and 94 % of control
- T/C [3]: 100 % of control and 86 % of control

Compound: CN1C2C=C(c3ccccc3)CC1CC2 (stereo not drawn)
- T/C (dose: 0.75 mg/kg/injection, schedule: Q01DX005 (ip), vehicle: saline): 94 % of control
- T/C (dose: 1.5 mg/kg/injection, schedule: Q01DX005 (ip), vehicle: saline): 108 % of control
- T/C (dose: 1.56 mg/kg/injection, schedule: Q01DX005 (ip), vehicle: Klucel (hydroxypropylcellulose) (HPC)): 105 % of control
- T/C (dose: 3.0 mg/kg/injection, schedule: Q01DX005 (ip), vehicle: saline): 102 % of control
- T/C (dose: 3.12 mg/kg/injection, schedule: Q01DX005 (ip), vehicle: Klucel (hydroxypropylcellulose) (HPC)): 103 % of control

Compound: O=C(Nc1ccc(C2=NCCCN2)cc1)c1ccc(C(=O)Nc2ccc(C3=NCCCN3)cc2)cc1
- T/C (dose: 1.25 mg/kg/injection, schedule: Q04DX003 (ip), vehicle: saline with Tween-80): 100 % of control
- T/C (dose: 2.5 mg/kg/injection, schedule: Q04DX003 (ip), vehicle: saline with Tween-80): 113 % of control
- T/C (dose: 5.0 mg/kg/injection, schedule: Q01DX009 (ip), vehicle: saline): 300 % of control
- T/C (dose: 10.8 mg/kg/injection, schedule: Q04DX003 (ip), vehicle: Klucel (hydroxypropylcellulose) (HPC)): 151 % of control
- T/C (dose: 12.0 mg/kg/injection, schedule: Q04DX003 (ip), vehicle: Klucel (hydroxypropylcellulose) (HPC)): 151 % of control
- T/C (dose: 18.0 mg/kg/injection, schedule: Q04DX003 (ip), vehicle: Klucel (hydroxypropylcellulose) (HPC)): 165 % of control and 186 % of control and 198 % of control
- T/C (dose: 20.0 mg/kg/injection, schedule: Q01DX009 (ip), vehicle: saline): 100 % of control
- T/C (dose: 20.0 mg/kg/injection, schedule: Q04DX003 (ip), vehicle: Klucel (hydroxypropylcellulose) (HPC)): 185 % of control
- T/C (dose: 20.0 mg/kg/injection, schedule: Q04DX003 (ip), vehicle: saline with Tween-80): 204 % of control
- T/C (dose: 30.0 mg/kg/injection, schedule: Q04DX003 (ip), vehicle: Klucel (hydroxypropylcellulose) (HPC)): 201 % of control
- T/C (dose: 33.3 mg/kg/injection, schedule: Q04DX003 (ip), vehicle: Klucel (hydroxypropylcellulose) (HPC)): 250 % of control
- T/C (dose: 50.0 mg/kg/injection, schedule: Q04DX003 (ip), vehicle: Klucel (hydroxypropylcellulose) (HPC)): 91 % of control

Compound: COC(=O)C1CC(C)N1C1CCCCC1 (stereo not drawn)
- T/C [4]: 97 % of control
- T/C [5]: 97 % of control
- T/C [6]: 101 % of control

Compound: COc1ccc(/C=C/c2ccc3ccccc3[n+]2C)c(OC)c1OC
- T/C (dose: 0.63 mg/kg/injection, schedule: Q01DX009 (ip), vehicle: Klucel (hydroxypropylcellulose) (HPC)): 107 % of control
- T/C (dose: 1.25 mg/kg/injection, schedule: Q01DX009 (ip), vehicle: Klucel (hydroxypropylcellulose) (HPC)): 110 % of control
- T/C (dose: 5.0 mg/kg/injection, schedule: Q01DX009 (ip), vehicle: Klucel (hydroxypropylcellulose) (HPC)): 107 % of control

Compound: CC(C)(C)OC(=O)N1CCCC1C1=N/C(=C\c2ccccc2)C(=O)O1 (stereo not drawn)
- T/C (dose: 50.0 mg/kg/injection, schedule: Q01DX005 (ip), vehicle: saline with Tween-80): 102 % of control
- T/C [7]: 111 % of control
- T/C [8]: 105 % of control

Compound: CC(Cl)CN(CC(C)Cl)c1ccc2c(c1)Cc1ccccc1-2 (stereo not drawn)
- T/C [9]: 122 % of control
- T/C [10]: 112 % of control

Compound: CCC(c1ccc(OC)cc1)C(NC(=S)Nc1ccc(C)cc1)c1ccc(OC)cc1 (stereo not drawn)
- T/C (dose: 100.0 mg/kg/injection, schedule: Q01DX001 (ip), vehicle: saline with Tween-80): 88 % of control
- T/C (dose: 200.0 mg/kg/injection, schedule: Q01DX001 (ip), vehicle: saline with Tween-80): 88 % of control
- T/C (dose: 400.0 mg/kg/injection, schedule: Q01DX001 (ip), vehicle: saline with Tween-80): 90 % of control

Compound: O=C(Nc1ccc(N=Nc2ccc(S(=O)(=O)O)cc2)cc1)c1ccc(N=Nc2cc(S(=O)(=O)O)c3ccccc3c2O)cc1
- T/C [4]: 110 % of control
- T/C [5]: 104 % of control

Compound: COc1cc2c(cc1C(C)c1ccc(OCC(=O)O)cc1)OCO2 (stereo not drawn)
- T/C (dose: 50.0 mg/kg/injection, schedule: Q01DX005 (ip), vehicle: distilled water + Tween-80): 96 % of control
- T/C (dose: 100.0 mg/kg/injection, schedule: Q01DX005 (ip), vehicle: distilled water + Tween-80): 105 % of control
- T/C (dose: 200.0 mg/kg/injection, schedule: Q01DX005 (ip), vehicle: distilled water + Tween-80): 100 % of control

Compound: CN(OC(=O)C(C)(C)C)C(=O)C(C)(C)C
- T/C [7]: 106 % of control
- T/C [8]: 105 % of control
- T/C (dose: 400.0 mg/kg/injection, schedule: Q01DX005 (ip), vehicle: saline with Tween-80): 108 % of control

Compound: Cc1cccc(-c2cc(Cl)c3cc(S(=O)(=O)F)ccc3n2)c1
- T/C [1]: 100 % of control
- T/C (dose: 100.0 mg/kg/injection, schedule: Q04DX003 (ip), vehicle: saline with Tween-80): 100 % of control
- T/C [2]: 108 % of control
- T/C (dose: 200.0 mg/kg/injection, schedule: Q04DX003 (ip), vehicle: saline with Tween-80): 100 % of control
- T/C [3]: 100 % of control
- T/C (dose: 400.0 mg/kg/injection, schedule: Q04DX003 (ip), vehicle: saline with Tween-80): 109 % of control

Compound: CCCCN(CCCC)c1ccc(C(=N)c2ccc(N(CCCC)CCCC)cc2)cc1
- T/C (dose: 6.25 mg/kg/injection, schedule: Q01DX005 (ip), vehicle: Klucel (hydroxypropylcellulose) (HPC)): 108 % of control
- T/C (dose: 12.5 mg/kg/injection, schedule: Q01DX005 (ip), vehicle: Klucel (hydroxypropylcellulose) (HPC)): 108 % of control
- T/C (dose: 25.0 mg/kg/injection, schedule: Q01DX005 (ip), vehicle: Klucel (hydroxypropylcellulose) (HPC)): 117 % of control

Compound: Cc1nc(-c2ccccc2)oc1C(N)=O
- T/C [9]: 108 % of control
- T/C [10]: 110 % of control

Compound: C=CC(=O)OCC(C)(C)C
- T/C [4]: 99 % of control
- T/C [5]: 98 % of control
- T/C [6]: 116 % of control

Compound: Nc1nc(SCC(=O)O)[nH]c(=O)c1NS(=O)(=O)c1ccc([N+](=O)[O-])cc1
- T/C (dose: 60.0 mg/kg/injection, schedule: Q01DX005 (ip), vehicle: Klucel (hydroxypropylcellulose) (HPC)): 96 % of control
- T/C (dose: 120.0 mg/kg/injection, schedule: Q01DX005 (ip), vehicle: Klucel (hydroxypropylcellulose) (HPC)): 98 % of control
- T/C (dose: 240.0 mg/kg/injection, schedule: Q01DX005 (ip), vehicle: Klucel (hydroxypropylcellulose) (HPC)): 102 % of control

Compound: CNC(=S)NNc1cccc2ccccc12
- T/C (dose: 12.5 mg/kg/injection, schedule: Q01DX009 (ip), vehicle: other): 97 % of control
- T/C (dose: 25.0 mg/kg/injection, schedule: Q01DX009 (ip), vehicle: other): 101 % of control
- T/C (dose: 50.0 mg/kg/injection, schedule: Q01DX009 (ip), vehicle: other): 100 % of control
- T/C (dose: 100.0 mg/kg/injection, schedule: Q01DX009 (ip), vehicle: other): 103 % of control and 96 % of control
- T/C (dose: 200.0 mg/kg/injection, schedule: Q01DX009 (ip), vehicle: other): 103 % of control and 96 % of control
- T/C (dose: 400.0 mg/kg/injection, schedule: Q01DX009 (ip), vehicle: other): 94 % of control
